{"source": "paper PMC2671563", "about": "(PLoS Biology, 2009)", "key": {"human S100A9": {"biological_target": "T1, human S100A9 (Homo sapiens, UniProt P06702)", "T1 construct": "made in house; host or cells: Escherichia coli (or purified from granulocytes)", "T1 sequence (P06702 1-114)": "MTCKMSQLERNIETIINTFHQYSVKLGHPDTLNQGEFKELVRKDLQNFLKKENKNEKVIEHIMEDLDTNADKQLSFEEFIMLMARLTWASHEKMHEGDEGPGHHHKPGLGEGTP", "experiment": "SPR: human S100A9 binding to immobilised ABR-224649 (Q compound), direct binding and displacement", "protocol": "(§1) The SPR analysis was carried out with the Biacore 3000 system (GE Healthcare). Sensor chips, amine coupling kit, immobilization and running buffers, and regeneration solutions were obtained from GE Healthcare. Working solutions of all reagents used for Biacore analysis were prepared in 0.01 M Hepes, 0.15 M NaCl (pH 7.4) containing 0.005% v/v Surfactant P-20 (HBS-P; GE Healthcare) by buffer exchange on Fast Protein Desalting Micro-Spin Columns from Pierce. ABR-215757 was immobilised onto a CM5 chip through an amino-linker (ABR-224649). […] Activity of ligands after immobilisation was tested by injecting specific antibodies (unpublished data). In some experiments, S100A9 was immobilized either by random amine coupling or with a known orientation (i.e., by sulhydryl group conjugation to the only cysteine in S100A9 at position 3).\n(§2) Binding to the various surfaces was performed by injecting the analyte at a flow rate of 30 μl/min in a physiological buffer (HBS-P) containing 1 mM Ca^2+ and 10 μM Zn^2+ as proposed for S100A8/9 by Robinson et al.. A typical analysis cycle consists of: (1) pumping running buffer for 1 min to obtain a stable baseline; (2) injection of sample for an appropriate period of time (association); (3) pumping running buffer for 2.5 min (dissociation); (4) injection of a short pulse (30 s) of 15 μl 10 mM glycine-HCl (pH 2.0) (regeneration); and (5) pumping running buffer for 2 min (stabilisation after regeneration) at a flow rate of 30 μl/min. […] In one experiment, S100A9 was injected into a buffer with a fixed Ca^2+ concentration (1 mM) and Zn^2+ in the range 0–50 μM. In a second experiment, Ca^2+ was varied from 0–2 mM at a fixed Zn^2+ concentration (10 μM). In subsequent analyses, regeneration was carried out under more mild conditions, i.e., by injecting 30 μl of HBS-P containing 3 mM EDTA (HBS-EP; GE Healthcare) for 60 s, to prolong the lifespan of the chip.\n(§3) Compounds were also injected over the immobilised surfaces in the absence of S100A9 to exclude, or make possible correction for, any direct binding of compound to the surface.\n(§4) Evaluation was carried out using BIAevaluation Software version 3.2 (GE Healthcare). The response at steady-state was obtained by fit of sensorgrams to standard binding models, where appropriate, or calculated as responses at late association or early dissociation phase using the Steady state affinity function in BIAevaluation. Affinity was determined from kinetic analysis (on- and off-rates) or as the apparent affinity after plotting responses versus concentration of analyte in a saturation curve. In the inhibition assay format, the competitor concentration yielding 50% inhibition (IC50) was calculated by fitting data to a one-site competition model in GraphPad Prism."}, "[1]": {"biological_target": "T2, human S100A9 binding to human RAGE (Homo sapiens, UniProt P06702)", "T2 construct": "purchased R&D Systems (RAGE/Fc); S100A9 made in house", "T2 sequence (P06702 1-114)": "T1 sequence (P06702 1-114)", "experiment": "SPR: inhibition of human S100A9 binding to immobilised human RAGE", "protocol": "as §1, §2, §3, §4"}, "[2]": {"biological_target": "T3, human S100A9 binding to human TLR4/MD2 (Homo sapiens, UniProt P06702)", "T3 construct": "purchased R&D Systems (TLR4/MD-2 complex); S100A9 made in house", "T3 sequence (P06702 1-114)": "T1 sequence (P06702 1-114)", "experiment": "SPR: inhibition of human S100A9 binding to immobilised human TLR4/MD2", "protocol": "as §1, §2, §3, §4"}, "mS100A9": {"biological_target": "T4, mS100A9 (Mus musculus, UniProt P31725)", "T4 construct": "made in house; host or cells: Escherichia coli (or purified from granulocytes)", "T4 sequence (P31725 1-113)": "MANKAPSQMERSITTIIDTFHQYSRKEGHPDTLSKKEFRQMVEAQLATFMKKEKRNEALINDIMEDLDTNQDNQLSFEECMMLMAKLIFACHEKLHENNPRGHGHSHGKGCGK", "experiment": "SPR: inhibition of mouse S100A9 binding to immobilised ABR-224649", "conditions": "Table S1", "protocol": "as §1, §2, §3, §4"}, "mS100A9 and mRAGE/hFc": {"biological_target": "T5, mS100A9 and mRAGE/hFc (Mus musculus, UniProt P31725)", "T5 construct": "purchased R&D Systems (mRAGE/Fc); S100A9 made in house", "T5 sequence (P31725 2-113 limits assumed)": "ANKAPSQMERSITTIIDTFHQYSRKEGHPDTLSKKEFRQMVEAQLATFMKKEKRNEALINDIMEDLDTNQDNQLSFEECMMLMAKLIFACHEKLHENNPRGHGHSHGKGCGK", "experiment": "SPR: inhibition of mouse S100A9 binding to immobilised mouse RAGE", "protocol": "as §1, §2, §3, §4"}, "mS100A9 and mLPS-Trap": {"biological_target": "T6, mS100A9 and mLPS-Trap (Mus musculus, UniProt P31725)", "T6 sequence (P31725 2-113 limits assumed)": "T5 sequence (P31725 2-113 limits assumed)", "experiment": "SPR: inhibition of mouse S100A9 binding to immobilised mouse TLR4/MD2 fusion protein (mLPS-Trap)", "protocol": "as §1, §2, §3, §4"}, "mS100A8/A9 and mRAGE": {"biological_target": "T7, mS100A8/A9 and mRAGE (Mus musculus, UniProt P31725)", "T7 construct": "purchased R&D Systems (mRAGE/Fc); S100A8/A9 made in house", "T7 sequence (P31725 2-113 limits assumed)": "T5 sequence (P31725 2-113 limits assumed)", "T7 sequence (P27005 2-89 partner limits assumed)": "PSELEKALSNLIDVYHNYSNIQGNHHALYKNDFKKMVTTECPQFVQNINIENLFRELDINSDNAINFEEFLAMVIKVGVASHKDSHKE", "experiment": "SPR: inhibition of mouse S100A8/A9 binding to mouse RAGE", "conditions": "Table S1", "protocol": "as §1, §2, §3, §4"}, "mS100A8/A9 and mLPS-Trap": {"biological_target": "T8, mS100A8/A9 and mLPS-Trap (Mus musculus, UniProt P31725)", "T8 sequence (P31725 2-113 limits assumed)": "T5 sequence (P31725 2-113 limits assumed)", "experiment": "SPR: inhibition of mouse S100A8/A9 binding to mLPS-Trap", "conditions": "Table S1; read-out: S100A8-9 binding IC50, mS100A8/A9 TLR4", "protocol": "as §1, §2, §3, §4"}, "[3]": {"system": "aEAE development in SLJ/N mice", "experiment": "acute experimental autoimmune encephalomyelitis (aEAE) in mice", "format": "in vivo, mouse", "conditions": "Mus musculus, read-out: aEAE Inhibition ED50", "description": "A training set of five quinoline derivatives with structural diversification performed at position 5 of the quinoline ring system was used for the SAR. PCA was used to uncover any relationship between the binding activities of the quinoline derivatives at the S100 proteins and the inhibitory effect of these derivatives in the aEAE model. PLS was then used to model the relationship between the physiochemical descriptors used to characterize the compounds and their biological responses. […] All variables were mean centred and scaled to unit variance."}, "[4]": {"system": "serum TNFα after LPS challenge", "experiment": "LPS-induced systemic TNFα production in C57BL/6 mice", "format": "in vivo, mouse", "protocol": "TNFα induction after intraperitoneal challenge with LPS was performed essentially as described. In brief, mice were pretreated for 2 h with 10 mg/kg ABR-215757 or PBS, after which 3 or 6 μg of LPS was injected intraperitoneally. After an additional 90 min, the animals were sacrificed, and the level of TNFα in blood was determined using commercial TNFα antibodies (eBioscience; http://www.ebioscience.com)."}, "human RAGE": {"biological_target": "T9, human RAGE (Homo sapiens, UniProt Q15109)", "T9 construct": "purchased R&D Systems", "T9 sequence (Q15109 23-342 limits assumed)": "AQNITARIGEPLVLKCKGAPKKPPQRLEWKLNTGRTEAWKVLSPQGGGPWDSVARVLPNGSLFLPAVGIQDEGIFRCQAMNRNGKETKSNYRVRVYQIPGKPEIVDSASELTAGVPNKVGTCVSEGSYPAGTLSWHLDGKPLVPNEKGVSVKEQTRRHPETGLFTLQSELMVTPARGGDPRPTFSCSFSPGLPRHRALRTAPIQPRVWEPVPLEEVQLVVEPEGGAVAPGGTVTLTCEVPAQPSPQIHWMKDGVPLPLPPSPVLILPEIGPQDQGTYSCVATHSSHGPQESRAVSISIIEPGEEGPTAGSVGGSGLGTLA", "experiment": "SPR: direct binding to immobilised human RAGE", "conditions": "unpublished data", "protocol": "as §1, with “3). […]” for “3).”\nas §4, with “In the inhibition assay format, the competitor concentration yielding 50% inhibition (IC50) was calculated by fitting data to a one-site competition model in GraphPad Prism.” left out"}, "human TLR4/MD2": {"biological_target": "T10, human TLR4/MD2 (Homo sapiens, UniProt O00206+Q9Y6Y9)", "T10 construct": "purchased R&D Systems", "T10 sequence (O00206 24-631 limits assumed)": "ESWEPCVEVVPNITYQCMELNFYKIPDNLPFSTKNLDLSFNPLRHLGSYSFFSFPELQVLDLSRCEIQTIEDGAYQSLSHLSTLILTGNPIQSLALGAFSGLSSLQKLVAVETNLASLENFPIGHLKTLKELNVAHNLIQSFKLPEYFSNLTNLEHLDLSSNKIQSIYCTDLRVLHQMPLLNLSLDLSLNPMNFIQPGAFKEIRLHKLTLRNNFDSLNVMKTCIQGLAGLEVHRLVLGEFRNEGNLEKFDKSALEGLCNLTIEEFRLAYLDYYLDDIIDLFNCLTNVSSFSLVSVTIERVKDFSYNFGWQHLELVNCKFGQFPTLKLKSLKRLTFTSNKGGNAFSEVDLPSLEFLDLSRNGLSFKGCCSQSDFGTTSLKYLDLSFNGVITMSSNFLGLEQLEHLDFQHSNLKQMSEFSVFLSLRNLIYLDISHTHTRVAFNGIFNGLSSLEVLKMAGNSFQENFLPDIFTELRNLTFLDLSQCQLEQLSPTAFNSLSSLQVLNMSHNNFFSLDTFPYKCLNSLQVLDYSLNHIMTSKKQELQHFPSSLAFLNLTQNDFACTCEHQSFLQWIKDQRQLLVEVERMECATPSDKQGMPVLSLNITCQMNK", "T10 sequence (Q9Y6Y9 19-160)": "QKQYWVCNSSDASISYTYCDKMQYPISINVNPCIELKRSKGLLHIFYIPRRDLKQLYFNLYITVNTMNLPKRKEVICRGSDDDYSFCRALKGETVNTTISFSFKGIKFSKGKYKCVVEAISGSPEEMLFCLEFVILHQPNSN", "experiment": "SPR: direct binding to immobilised human TLR4/MD2", "conditions": "unpublished data", "protocol": "as §1, with “3). […]” for “3).”\nas §4, with “In the inhibition assay format, the competitor concentration yielding 50% inhibition (IC50) was calculated by fitting data to a one-site competition model in GraphPad Prism.” left out"}, "human S100A8": {"biological_target": "T11, human S100A8 (Homo sapiens, UniProt P05109)", "T11 construct": "made in house; host or cells: Escherichia coli or granulocytes", "T11 sequence (P05109 1-93)": "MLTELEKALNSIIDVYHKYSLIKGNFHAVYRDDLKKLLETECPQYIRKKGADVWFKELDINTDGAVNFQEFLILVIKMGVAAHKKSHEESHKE", "experiment": "SPR: human S100A8 binding to immobilised Q compound", "conditions": "100 nM protein", "protocol": "as §1\nBinding to the various surfaces was performed by injecting the analyte at a flow rate of 30 μl/min in a physiological buffer (HBS-P) containing 1 mM Ca^2+ and 10 μM Zn^2+ as proposed for S100A8/9 by Robinson et al.. […]"}}, "note": "pIC50: −log10 of the molar value. Read-outs that look alike come from different tables or passages of the source."}
{"smiles": "CCc1cccc2c1c(O)c(C(=O)N(CC)c1ccccc1)c(=O)n2C", "note": "[ABR-215757]", "values": [{"measurement": "binding of recombinant S100A9 to Q compound coupled to solid phase", "setting": "human S100A9", "result": "bound strongly"}, {"measurement": "pIC50", "setting": "human S100A9; 100 nM S100A9, competitor 7.81–1,000 μM, one-site competition model, 1 mM Ca2+ and 10 μM Zn2+", "result": 4.43}, {"measurement": "pIC50", "setting": "[1]; S100A9 binding IC50, hS100A9 RAGE, Table S1", "result": 4.22}, {"measurement": "pIC50", "setting": "[1]; competitor concentration yielding 50% inhibition of S100A9 binding to RAGE surface, 100 nM S100A9, competitor 7.81–1,000 μM, single experiment Figure 2C", "result": 4.59}, {"measurement": "pIC50", "setting": "[2]; 100 nM S100A9, competitor 7.81 to 1,000 μM, single experiment Figure 3C, read-out: IC50, inhibition of S100A9 binding to immobilised hTLR4/MD2", "result": 4.64}, {"measurement": "pIC50", "setting": "[2]; Table S1, read-out: S100A9 binding IC50, hS100A9 TLR4", "result": 4.22}, {"measurement": "pIC50", "setting": "mS100A9", "result": 3.03}, {"measurement": "competition of mouse S100A9 interaction with solid-phase mouse RAGE", "setting": "mS100A9 and mRAGE/hFc; 100 nM mouse S100A9", "result": "competed"}, {"measurement": "pIC50", "setting": "mS100A9 and mRAGE/hFc; Table S1", "result": 3.51}, {"measurement": "competition of mouse S100A9 interaction with solid-phase mouse TLR4/MD2", "setting": "mS100A9 and mLPS-Trap; 100 nM mouse S100A9", "result": "competed"}, {"measurement": "pIC50", "setting": "mS100A9 and mLPS-Trap; Table S1", "result": 3.16}, {"measurement": "pIC50", "setting": "mS100A8/A9 and mRAGE", "result": 3.48}, {"measurement": "pIC50", "setting": "mS100A8/A9 and mLPS-Trap", "result": 3.48}, {"measurement": "ED50", "setting": "[3]", "result": 0.04, "unit": "mg/kg"}, {"measurement": "TNFα production after LPS challenge", "setting": "[4]; 3 μg LPS i.p., treatment 2 h before (ABR-215757 10 mg/kg)", "result": "significantly inhibited"}, {"measurement": "TNFα production after LPS challenge", "setting": "[4]; 6 μg LPS i.p., 10 mg/kg 2 h before", "result": "significantly inhibited"}, {"measurement": "direct binding to RAGE", "setting": "human RAGE", "result": "not observed"}, {"measurement": "direct binding to hTLR4/MD2", "setting": "human TLR4/MD2", "result": "negligible"}, {"measurement": "binding of S100A8 to immobilised Q compound", "setting": "human S100A8", "result": "close to baseline levels"}]}
